US20220257698A1, “ANGIOTENSIN TYPE 2 (AT2) RECEPTOR AGONISTS FOR USE IN THE TREATMENT OF CANCER” (LANTHIOPEP B.V., priority 2019, published 2022)

Biological target: serine/threonine kinases (STK) in colon carcinoma PDX lysates
Assay: PamChip serine/threonine kinase (STK) activity profiling of colon carcinoma PDX tumor lysates
Parameters: species or system human PDX grown in mice; Kinase score: scale not given here
Conditions: for Kinase statistic: value<0 = higher activity in vehicle-treated tumors; for Kinase score: vehicle-treated vs KcAng(1-7)-treated tumors
Experimental: In particular, to determine the effect of treatment on kinase activities, Tyrosine (PTK) and Serine/Threonine (STK) PamChip®-based kinase activity profiling in lysates from colon carcinoma PDX was performed by PamGene International B.V., The Netherlands.
PamGene® kinase activity profiles were measured for vehicle-treated colon cancer PDX tumors (control, n=10) and KcAng(1-7)-treated colon cancer PDX tumors (treatment, n=10).
Frozen tissues of tumor samples were processed to make lysates followed by determination of tyrosine kinase and serine/threonine kinase activity profiles. Datasets were analyzed by PamGene bioinformatics toolbox, for example by using PamGene's method called Upstream Kinase Analysis.
Kinase Score was used for ranking kinases based on their significance and specificity in terms of the set of peptides used for the corresponding kinase. Kinase statistics indicates the overall change of the peptide set that represents the kinase. Kinase statistics value<0 indicates higher activity in vehicle-treated tumors.

Work on “Lys-Asp-Arg-Val-Abu/Ala-Ile-His-Abu/Ala (KDRVAIHA; not fully specified; cyclic thioether (Abu/Ala bridge); VARIANT (5)..(5) /replace=“Abu”; VARIANT (8)..(8) /replace=“Abu”; SITE (1)..(8) /note=“Variant residues given in the sequence have no preference with respect to those in the annotations for variant positions”) [KcAng(1-7)]” yielded a Kinase statistic (kinase CDC2/CDK1) of −0.80, a Kinase score (kinase CDC2/CDK1) of 3.79 and a Kinase statistic (kinase CDK2) of −0.88. For the same substance, the Kinase score (kinase CDK2) was 5.40, the Kinase statistic (kinase CDK4) was −0.80 and the Kinase score (kinase CDK4) was 3.11. The Kinase statistic (kinase CDK5) was −0.80, the Kinase score (kinase CDK5) was 3.11 and the Kinase statistic (kinase CDK6) was −0.80. It also gave a Kinase score (kinase CDK6) of 3.10, a Kinase statistic (kinase CDK9) of −0.83 and a Kinase score (kinase CDK9) of 4.19. It also gave a Kinase statistic (kinase CDKL2) of −0.98, a Kinase score (kinase CDKL2) of 4.62 and a Kinase statistic (kinase CDKL5) of −0.82. The Kinase score (kinase CDKL5) was 4.21, the Kinase statistic (kinase ERK1) was −0.82 and the Kinase score (kinase ERK1) was 4.44. It also gave a Kinase statistic (kinase ERK2) of −0.79, a Kinase score (kinase ERK2) of 3.84 and a Kinase statistic (kinase ERK5) of −0.90. It also gave a Kinase score (kinase ERK5) of 5.40, a Kinase statistic (kinase JNK1) of −0.77 and a Kinase score (kinase JNK1) of 3.92. The Kinase statistic (kinase JNK2) was −0.77, the Kinase score (kinase JNK2) was 3.67 and the Kinase statistic (kinase JNK3) was −0.77. It also gave a Kinase score (kinase JNK3) of 4.08, a Kinase statistic (kinase MAPK14) of −0.79 and a Kinase score (kinase MAPK14) of 3.54. It also gave a Kinase statistic (kinase PCTAIRE2) of −0.74, a Kinase score (kinase PCTAIRE2) of 3.44 and a Kinase statistic (kinase RAF1) of −0.74. For the same substance, the Kinase score (kinase RAF1) was 2.97, the Kinase statistic (kinase RSK3) was −0.75 and the Kinase score (kinase RSK3) was 3.42. It also gave a Kinase statistic (kinase p38[beta]) of −0.84, a Kinase score (kinase p38[beta]) of 4.14 and a Kinase statistic (kinase p38[gamma]) of −0.82. For the same substance, the Kinase score (kinase p38[gamma]) was 3.47.
